In paper PMC10779433, “Bidirectional Allosteric Coupling between PIP2 Binding and the Pore of the Oncochannel TRPV6” (International Journal of Molecular Sciences, 2024):
Where two headings read alike, the source gives them in different places. Residues, ends and D or L forms follow the SMILES beside them. *: point of attachment. Palmitoyl = CCCCCCCCCCCCCCCC(=O)*

Legend:
TRPV6 I575A = tested on: TRPV6 I575A; design: method as in PMID 33246965; conditions: HEK293 cells; 0.1 μM and 10 μM cis-22a; Figure 5B; ref [47]; cited from earlier work
TRPV6 F468A = experiment: NFAT screen, TRPV6 F468A; format: cell-based, human; conditions: HEK293 cells; 5 μM cis-22a, 2 h; nuclear NFAT already reduced without cis-22a
Method: (§1) N-terminally TagRFP-labeled human TRPV6 (725 aa) was kindly provided by R. Bhardwaj and M. Hediger (University of Bern, Bern, Switzerland). This variant is translated from the first ATG codon and thus deviates from the non-ATG-initiated protein which is expressed in vivo (accession number NM_018646.6) by lacking 40 amino acids of the very N-terminus. For N-terminal labeling with EYFP, TRPV6 was cloned into pEYFP-C1 (Clontech) via EcoRI and SacII restriction sites. […]
(§2) After incubation, cover slips were carefully rinsed with phenol red-free DMEM supplemented with the compound and dosage corresponding to the previous incubation, which was then also present during imaging. […] Subcellular NFAT localization of TRPV6 expressing cells was again monitored on an Axiovert 135 inverted microscope (Zeiss, Oberkochen, Germany), as described in more detail before. […] Images were analyzed using Matlab2018a, differentiating between three cell populations based on the ratio of CFP emission intensity originating from the nucleus and the cytosol, similar to Schober et al. (2019).

TRPV6 K484A = conditions: HEK293 cells, ref [62], cited from earlier work
Excerpt: (§3) Thereby, some mutants which were investigated in our previous publications are shown again to simplify comparison with other treatments.

TRPV6 R470A = conditions: HEK293 cells, ref [47], cited from earlier work
Excerpt: as §3

TRPV6 R492A = experiment: NFAT screen, TRPV6 R492A; format: cell-based, human; conditions: HEK293 cells; 5 μM cis-22a, 2 h; nuclear NFAT already reduced without cis-22a
Method: as §1, §2

TRPV6 R492Q = experiment: NFAT screen, TRPV6 R492Q; format: cell-based, human; conditions: HEK293 cells; 5 μM cis-22a, 2 h, vs DMSO
Method: as §1, §2

TRPV6 W593A = experiment: NFAT screen, TRPV6 W593A; format: cell-based, human; conditions: HEK293 cells; 5 μM cis-22a, 2 h
Method: as §1, §2

TRPV6 WT = target: T1, TRPV6 WT (Homo sapiens, UniProt Q9H1D0); experiment: Fura-2 Ca2+ imaging, TRPV6 WT; format: cell-based; conditions: 20 μM pal-PIP2 peptide; for inhibition at 20 µM: HEK293, read-out: mean percentage of inhibition (Fura-2 signal), HEK293 cells
T1 construct: expressed in transfected cells; host or cells: HEK293 cells, transient transfection
T1 sequence (Q9H1D0 41-765 limits assumed): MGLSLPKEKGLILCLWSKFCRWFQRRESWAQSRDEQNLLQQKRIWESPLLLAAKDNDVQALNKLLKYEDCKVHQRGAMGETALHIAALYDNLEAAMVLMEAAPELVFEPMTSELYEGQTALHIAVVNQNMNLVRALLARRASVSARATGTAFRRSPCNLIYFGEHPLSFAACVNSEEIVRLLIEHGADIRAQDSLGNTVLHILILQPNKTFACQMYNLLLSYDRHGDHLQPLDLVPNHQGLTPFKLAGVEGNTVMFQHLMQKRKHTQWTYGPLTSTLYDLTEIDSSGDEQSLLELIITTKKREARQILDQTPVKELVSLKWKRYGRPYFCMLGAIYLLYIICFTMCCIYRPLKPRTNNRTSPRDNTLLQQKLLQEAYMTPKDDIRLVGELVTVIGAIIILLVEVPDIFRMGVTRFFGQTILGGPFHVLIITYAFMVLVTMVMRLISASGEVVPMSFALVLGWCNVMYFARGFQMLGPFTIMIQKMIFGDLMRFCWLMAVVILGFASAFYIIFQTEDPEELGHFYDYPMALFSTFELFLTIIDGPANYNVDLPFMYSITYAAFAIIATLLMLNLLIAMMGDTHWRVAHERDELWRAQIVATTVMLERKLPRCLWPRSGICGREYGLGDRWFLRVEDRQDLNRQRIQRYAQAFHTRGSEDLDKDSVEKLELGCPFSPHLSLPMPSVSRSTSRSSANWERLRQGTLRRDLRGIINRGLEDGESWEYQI

Row | Compound | response to cis-22a vs TRPV6 WT (TRPV6 I575A) | reduction of nuclear NFAT localization (TRPV6 F468A) | current inhibition vs TRPV6 WT (TRPV6 K484A; 0.1 μM cis-22a) | current inhibition vs TRPV6 WT (TRPV6 K484A; 10 μM cis-22a, after 0.1 μM) | current inhibition vs TRPV6 WT (TRPV6 R470A; 0.1 μM cis-22a) | current inhibition vs TRPV6 WT (TRPV6 R470A; 10 μM cis-22a, after 0.1 μM) | reduction of nuclear NFAT localization (TRPV6 R492A) | reduction of nuclear NFAT localization (TRPV6 R492Q) | reduction in nuclear NFAT (TRPV6 W593A) | inhibition at 20 µM (TRPV6 WT; applied after 0.5 μM cis-22a, Figure 6D, not significantly different from reverse order) [%] | inhibition at 20 µM (TRPV6 WT; applied first (before cis-22a), Figure 6C) [%] | decrease in cytosolic Ca2+ level (TRPV6 WT; HEK293 cells, 2 mM Ca2+, Figure 1B, significantly stronger than control peptide (p < 0.05)) | reduction of intracellular Ca2+ level (TRPV6 WT; HEK293 cells, 2 mM Ca2+, Figure 2A, comparison with G488R)
1 | Cc1cccc(C2CCC(N3CCN(c4cccnc4)CC3)CC2)c1.O=C(O)C(F)(F)F (stereo not drawn) [cis-22a] | significantly reduced response | further significant reduction in nucleus-targeted NFAT | significantly reduced | significantly reduced inhibition | significantly reduced | significantly reduced inhibition | further significant reduction in nucleus-targeted NFAT | failed to significantly reduce NFAT nuclear localization | lower yet significant decrease in the proportion of cells showing NFAT in the nucleus | – | – | – | –
2 | CCCCCCCCCCCCCCCC(=O)N[C@@H](Cc1c[nH]cn1)C(=O)N[C@@H](CCCNC(=N)N)C(=O)N[C@@H](CCC(N)=O)C(=O)N[C@@H](CCCCN)C(=O)N[C@@H](Cc1c[nH]cn1)C(=O)N[C@@H](Cc1ccccc1)C(=O)N[C@@H](CCC(=O)O)C(=O)N[C@@H](CCCCN)C(=O)N[C@@H](CCCNC(=N)N)C(=O)N[C@@H](CCCNC(=N)N)C(N)=O [pal-PIP2 peptide] (Palmitoyl-HRQKHFEKRR-NH2) | – | – | – | – | – | – | – | – | – | 9.18 | 10.8 | approximately 11% | about 13%
